Reference: patent US20240408194A1, “DNA ORIGAMI SUBUNIT VACCINE FOR PREVENTION OF SARS-CoV-2 VARIANT INFECTION” (priority 2021, published 2024)
“Also recorded” adds a separate entry of the source.

System: spike and variants
Format: binding, SARS-COV-2

Substance: LCB1
- binding affinity for spike and variants: up to picomolar; also recorded: high affinity
